# From US20030228357A1, “Dry granulated formulations of azithromycin” (Pfizer Inc., priority 2002, published 2003)
# “Also recorded” adds a separate entry of the source.
# How the values were obtained:
# Format in all cases: physicochemical
# [1] = Indices of tableting performance (Hiestand) of bulk azithromycin; conditions: forms N, M, G, A milled, F and J unmilled
# Method: Indices of tableting performance, for several azithromycin forms, were assessed to identify any mechanical deficiencies or attributes that may affect tablet formulation for these azithromycin forms. This assessment was performed in accordance with the procedures described in “Indices of Tableting, Performance” […] and D. P. Smith, Powder Technology 38 [1984] pp. 145-159. Specifically, the Brittle Fracture Index, BFI, was calculated from the ratio of a material's regular tensile strength to its compromised tensile strength. Strain Index, SI, was determined from the dynamic indentation hardness test. Worst Case Bonding Index was determined by assessing the extent of particle bonding remaining after decompression assuming a very short compression dwell time and a plastic mechanism of particle separation during decompression. Tableting Indices were determined for bulk azithromycin lots of six different crystalline forms, specifically forms N, M, G, A, F and J. Forms N, M and G were milled with a Fitzmill (Model JT, The Fitzpatrick Co., Elmhurst, Ill.) using a 0.027'' screen and knives at high speed in an attempt to match the smaller particle size of milled Form A. Unmilled forms F and J were evaluated “as is” due to their relatively small particle sizes.
# [2] = Tablet friability, Vanderkamp Friabulator (100 rotations/4 minutes)
# Method: Friability is a standard test known to one skilled in the art. Friability is measured under standardized conditions by weighing out a certain number of tablets (generally 20 tablets or less), placing them in a rotating Plexiglas drum in which they are lifted during replicate revolutions by a radial lever, and then dropped approximately 8 inches. After replicate revolutions (typically 100 revolutions at 25 rpm), the tablets are reweighed and the percentage of formulation abraded or chipped is calculated. The friability of the tablets, of the present invention, is preferably in the range of about 0% to 3%, and values about 1%, or less, are considered acceptable for most drug and food tablet contexts. Friability which approaches 0% is particularly preferred.
# (§1) All four formulations were compressed on the compaction simulator using either 0.344″×0.688″ oval tooling, or ½″ standard round concave (SRC) tooling. The tablets were tested for hardness (kP scale), using a Schleuniger hardness tablet tester (Dr. Schleuniger Pharmatron AG, Solothurn, Switzerland), and for friability (100 rotations/4 minutes) using a Vanderkamp Friabulator Tablet Tester (Vankel, Cary, N.C., US).
# [3] = Slug (compact) hardness, Schleuniger hardness tablet tester
# Excerpt: A compaction simulator was used to compress the blends. The compaction simulator was designed as a single station tablet press in which the compression dwell time can be adjusted to simulate different types of tablet presses. All the formulations were slugged on the compaction simulator configured as the Kilian RX-67 press with a dwell time of 0.3145 seconds using […] round flat face tooling. The slugs were then comminuted using a Fitz mill with a 0.125″ screen with knives forward and run at slow speed. […] The slugs were tested for hardness (kP scale), using a Schleuniger hardness tablet tester (Dr. Schleuniger Pharmatron AG, Solothurn, Switzerland).
# [4] = Tablet hardness, Schleuniger hardness tablet tester; conditions: for Avg Tablet Hardness: Table 4C, low drug loading, diluent MCC
# Method: as §1
# [5] = Density and Carr's Compressibility Index (flowability) of dry blends and dry granulations
# Excerpt: Carr's Compressibility Index was used to evaluate the flowability of the four dry granulations. Carr's Compressibility Index is a simple test to evaluate flowability by comparing both the initial and final (tapped) bulk volumes and the rate of packing down. A useful empirical guide to flow is given by Carr's compressibility index: Compressibility Index(%)=[(tapped density−initial density)/tapped density]×100 […] The procedure is described in Int. J. Pharm. Tech. & Prod. Mfr., 6(3) 10-16, 1985.
# [6] = Tablet hardness, Schleuniger hardness tablet tester; conditions: for Avg Tab Hardness: Short blend
# [7] = Tablet friability, Vanderkamp Friabulator (100 rotations/4 minutes); remark: listed apart in the source
# [8] = Table 4D, high drug loading, diluent MCC, modified capsule shape
# [9] = Table 4A, low drug loading (35.2 wt % azithromycin), diluent MCC
# [10] = Table 4B, high drug loading (58.2 wt % azithromycin), diluent MCC
# [11] = Table 7A, 55.76 wt % azithromycin, lactose anhydrous, corn starch, roller compaction 850 psi
# [12] = Table 7A, 55.76 wt % azithromycin, lactose anhydrous, corn starch, roller compaction 850 psi, sesquihydrate
# [13] = Table 4C, low drug loading, diluent Lactose, Oval tooling
# [14] = Table 4C, low drug loading, diluent Lactose, SRC (½″) tooling
# [15] = Table 3C, low drug loading (35.2 wt % azithromycin), DCP anhydrous, oval tablets, target weight 750 mg
# [16] = Table 6B, Drug Loading High, Modified Capsule 0.262″ × 0.531″
# [17] = Table 6B, Drug Loading High, Oval 0.344″ × 0.688″
# [18] = Table 6B, Drug Loading Low, Modified Capsule 0.262″ × 0.531″
# [19] = Table 6B, Drug Loading Low, Oval 0.344″ × 0.688″
# [20] = Table 6B, Drug Loading Low, ½″ SRC
# [21] = Table 3A, low drug loading: 35.2 wt % azithromycin, 54.8 wt % dicalcium phosphate anhydrous, long blend
# [22] = Table 3B, high drug loading: 58.2 wt % azithromycin, 31.8 wt % dicalcium phosphate anhydrous, long blend
# [23] = Table 6A, Drug Loading High (58.2 wt % azithromycin), DCP anhydrous
# [24] = Table 6A, Drug Loading Low (35.2 wt % azithromycin), DCP anhydrous
# [25] = Table 3D, high drug loading (58.2 wt % azithromycin), DCP anhydrous, modified capsule shape tablets, target weight 450 mg
# [26] = Table 4D, high drug loading, diluent Lactose, modified capsule shape
# [27] = Table 5B, Explotab, 500 mgA, Oval, Precompression 3.5 kN
# [28] = Table 5B, Explotab, 500 mgA, Oval, Precompression No
# [29] = Table 5B, PVP-XL, 250 mgA, Modified Capsule, Precompression No
# [30] = Table 5B, PVP-XL, 600 mgA, Modified Oval, Precompression No
# [31] = 35.2 wt % azithromycin, dicalcium phosphate anhydrous diluent, Short blend method
# [32] = Table 4A, low drug loading (35.2 wt % azithromycin), diluent Lactose
# [33] = Table 4B, high drug loading (58.2 wt % azithromycin), diluent Lactose
# [34] = Table 5A, 58.2 wt % azithromycin, dicalcium phosphate dihydrate, disintegrant Explotab
# [35] = Table 5A, 58.2 wt % azithromycin, dicalcium phosphate dihydrate, disintegrant PVP-XL
# [36] = 35.2 wt % azithromycin, dicalcium phosphate anhydrous diluent, Short blend method, slugged
# [37] = Table 5B, Explotab, 250 mgA, Modified Capsule, Precompression No
# [38] = Table 5B, PVP-XL, 600 mgA, Modified Oval, Precompression 1.5 kN
smiles,measurement,setting,value
"CC[C@H]1OC(=O)[C@H](C)[C@@H](O[C@H]2C[C@@](C)(OC)[C@@H](O)[C@H](C)O2)[C@H](C)[C@@H](O[C@@H]2O[C@H](C)C[C@H](N(C)C)[C@H]2O)[C@](C)(O)C[C@@H](C)CN(C)[C@H](C)[C@@H](O)[C@]1(C)O [Form G, azithromycin sesquihydrate]",Strain Index (SI),[1]; sesquihydrate,0.0043
same,Tensile Strength,[1]; sesquihydrate,1.03 Mpa
same,Worst Case Bonding Index (BIw) × 10^2,[1]; sesquihydrate,0.8
same,Friability,"[2]; Table 4C, low drug loading, diluent MCC, Oval tooling",1.30%
same,Friability,"[2]; Table 4C, low drug loading, diluent MCC, SRC (½″) tooling",0.78%
same,Friability,[2]; [8],0.41%
same,Avg Slug Hardness,[3]; [9],13 kP
same,Avg Slug Hardness,[3]; [10],9 kP
same,Avg Tablet Hardness,[4]; Oval tooling,6.1 kP
same,Avg Tablet Hardness,[4]; SRC (½″) tooling,5.3 kP
same,Dry Granulation Carr's Index,[5]; [9],25%
same,Dry Granulation Density As Is,[5]; [9],0.51 g/cc
same,Dry Granulation Density Tapped,[5]; [9],0.68 g/cc
same,Dry Granulation Carr's Index,[5]; [10],25%
same,Dry Granulation Density As Is,[5]; [10],0.53 g/cc
same,Dry Granulation Density Tapped,[5]; [10],0.71 g/cc
same,Dry Granulation Density Tapped,[5]; [11],0.86 g/cc
same,Dry Granulation Carr's Index,[5]; [12],22%
same,Dry Granulation Density As Is,[5]; [12],0.67 g/cc
same,Avg Tablet Hardness,[6]; [8],5.8 kP
"CCC1OC(=O)C(C)C(O[C@H]2C[C@@](C)(OC)[C@@H](O)C(C)O2)C(C)[C@@H](OC2OC(C)CC(N(C)C)[C@H]2O)[C@@](C)(O)C[C@@H](C)CN(C)[C@H](C)[C@@H](O)[C@]1(C)O (some centres unmarked) [Form H, azithromycin monohydrate hemi-1,2 propanediol solvate]",Friability,[2]; [13],Broken
same,Friability,[2]; [14],0.53%
same,Avg Tablet Hardness,[6]; [13],7.0 kP
same,Avg Tablet Hardness,[6]; [14],7.5 kP
"CCC1OC(=O)C(C)C(O[C@H]2C[C@@](C)(OC)[C@@H](O)C(C)O2)C(C)[C@@H](OC2OC(C)CC(N(C)C)[C@H]2O)[C@@](C)(O)C[C@@H](C)CN(C)[C@H](C)[C@@H](O)[C@]1(C)O (some centres unmarked) [Form J, azithromycin monohydrate hemi-n-propanol solvate]",Brittle Fracture Index (BFI),[1],0.11
same,Strain Index (SI),[1],0.0043
same,Tensile Strength,[1],0.69 Mpa
same,Worst Case Bonding Index (BIw) × 10^2,[1],0.7
same,Friability,[2]; [15],broke during friability testing; also recorded: Broken
same,Friability,[2]; [16],0.38%
same,Friability,[2]; [17],0.71%
same,Friability,[2]; [18],0.52%
same,Friability,[2]; [19],Broken Tablets
same,Friability,[2]; [20],1.46%
same,Avg Slug Hardness,[3]; [21],14 kP
same,Avg Slug Hardness,[3]; [22],11 kP
same,Avg Slug Hardness,[3]; [23],11 kP
same,Avg Slug Hardness,[3]; [24],14 kP
same,Avg Hardness,[4]; [15],9.1 kP
same,Avg Hardness,[4]; [17],10.2 kP
same,Avg Hardness,[4]; [19],9.1 kP
same,Granulation Carr's Index,[5]; [21],22%
same,Granulation Density As Is,[5]; [21],0.87 g/cc
same,Granulation Density Tapped,[5]; [21],1.12 g/cc
same,Granulation Carr's Index,[5]; [22],28%
same,Granulation Density As Is,[5]; [22],0.67 g/cc
same,Granulation Density Tapped,[5]; [22],0.93 g/cc
same,Dry Granulation Carr's Index,[5]; [23],28%
same,Dry Granulation Density As Is,[5]; [23],0.67 g/cc
same,Dry Granulation Density Tapped,[5]; [23],0.93 g/cc
same,Dry Granulation Carr's Index,[5]; [24],22%
same,Dry Granulation Density As Is,[5]; [24],0.87 g/cc
same,Dry Granulation Density Tapped,[5]; [24],1.12 g/cc
same,Friability,[7]; [25],0.38%
same,Avg Hardness,[6]; [25],6.5 kP
same,Avg Hardness,[6]; [16],6.5 kP
same,Avg Hardness,[6]; [18],6.9 kP
same,Avg Hardness,[6]; [20],5.4 kP
"CCC1OC(=O)C(C)C(O[C@H]2C[C@@](C)(OC)[C@@H](O)C(C)O2)C(C)[C@@H](OC2OC(C)CC(N(C)C)[C@H]2O)[C@@](C)(O)C[C@@H](C)CN(C)[C@H](C)[C@@H](O)[C@]1(C)O (some centres unmarked) [Form M, azithromycin monohydrate hemi-isopropanol solvate]",Brittle Fracture Index (BFI),[1],0.10
same,Strain Index (SI),[1],0.0048
same,Tensile Strength,[1],0.79 Mpa
same,Worst Case Bonding Index (BIw) × 10^2,[1],1.0
same,Friability,"[2]; Table 2B Run 6, Short blend, Oval tooling, compression force 19.4 kN",capped
same,Friability,"[2]; Table 2B Run 7, Short blend, Oval tooling, compression force 14 kN",capped
same,Friability,[2]; [26],0.28%
same,Friability,[2]; [27],0.50%
same,Friability,[2]; [28],2.71%
same,Friability,[2]; [29],0.25%
same,Friability,[2]; [30],6.34%
same,Avg Slug Hardness,[3]; [31],10.9 kP
same,Avg Slug Hardness,[3]; [21],11 kP
same,Avg Slug Hardness,[3]; [32],13 kP
same,Avg Slug Hardness,[3]; [33],11 kP
same,Avg Slug Hardness,[3]; [34],12 kP
same,Avg Slug Hardness,[3]; [35],13 kP
same,Avg Hardness,[4]; [15],8.4 kP
same,Dry Blend Carr's Index,[5]; [31],36%
same,Dry Blend density As Is,[5]; [31],0.68 g/cc
same,Dry Blend density Tapped,[5]; [31],1.08 g/cc
same,Granulation Carr's Index,[5]; [36],28%
same,Granulation Density As Is,[5]; [36],0.82 g/cc
same,Granulation Density Tapped,[5]; [36],1.14 g/cc
same,Granulation Carr's Index,[5]; [21],28%
same,Granulation Density As Is,[5]; [21],0.82 g/cc
same,Granulation Density Tapped,[5]; [21],1.14 g/cc
same,Dry Granulation Carr's Index,[5]; [32],30%
same,Dry Granulation Density As Is,[5]; [32],0.55 g/cc
same,Dry Granulation Density Tapped,[5]; [32],0.78 g/cc
same,Dry Granulation Carr's Index,[5]; [33],29%
same,Dry Granulation Density As Is,[5]; [33],0.53 g/cc
same,Dry Granulation Density Tapped,[5]; [33],0.75 g/cc
same,Dry Granulation Carr's Index,[5]; [34],26%
same,Dry Granulation Density As Is,[5]; [34],0.67 g/cc
same,Dry Granulation Density Tapped,[5]; [34],0.91 g/cc
same,Dry Granulation Carr's Index,[5]; [35],25%
same,Dry Granulation Density As Is,[5]; [35],0.63 g/cc
same,Dry Granulation Density Tapped,[5]; [35],0.84 g/cc
same,Dry Granulation Carr's Index,[5]; [11],24%
same,Dry Granulation Density As Is,[5]; [11],0.62 g/cc
same,Dry Granulation Density Tapped,[5]; [11],0.82 g/cc
same,Friability,[7]; [25],0.45%
same,Friability,[7]; [37],0.33%
same,Friability,[7]; [38],0.34%
same,Avg Tab Hardness,"[6]; Table 2B Run 6, Oval tooling, compression force 19.4 kN",8.4 kP
same,Avg Tab Hardness,"[6]; Table 2B Run 7, Oval tooling, compression force 14 kN",5.1 kP
same,Avg Hardness,[6]; [25],6.1 kP
same,Avg Tablet Hardness,[6]; [26],5.8 kP
same,Avg Hardness,[6]; [37],4.5 kP
same,Avg Hardness,[6]; [27],7.4 kP
same,Avg Hardness,[6]; [28],5.6 kP
same,Avg Hardness,[6]; [29],4.9 kP
same,Avg Hardness,[6]; [38],9.2 kP
same,Avg Hardness,[6]; [30],4.2 kP
